Laboratory results reported in patent US7459450B2, “Neuropeptide receptor modulators” (Schering Corporation, priority 2004, dated 2008).

What follows are compounds tested against T1, Human NPY Y1 receptors (Homo sapiens, UniProt P25929) (assay: NPY Receptor Binding Assay). Settings: not given.
T1 construct: expressed in transfected cells; host or cells: CHO cells (membrane protein)
T1 sequence (P25929 1-384): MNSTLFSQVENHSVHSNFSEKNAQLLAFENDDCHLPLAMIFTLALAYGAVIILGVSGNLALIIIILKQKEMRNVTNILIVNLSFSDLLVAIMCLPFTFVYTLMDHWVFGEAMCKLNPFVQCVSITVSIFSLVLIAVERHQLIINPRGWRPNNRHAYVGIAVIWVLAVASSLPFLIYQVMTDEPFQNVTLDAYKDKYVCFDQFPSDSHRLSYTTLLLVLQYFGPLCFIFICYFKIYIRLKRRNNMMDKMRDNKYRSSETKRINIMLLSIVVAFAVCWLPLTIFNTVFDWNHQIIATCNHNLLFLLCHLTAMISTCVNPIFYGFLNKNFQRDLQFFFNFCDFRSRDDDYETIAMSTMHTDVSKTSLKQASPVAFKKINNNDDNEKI
Description: NPY Receptor Binding Assay
Human NPY Y1 receptors were expressed in CHO cells. Binding assays were performed in 50 mM HEPES, pH 7.2, 2.5 mM CaCl2, 1 mM MgCl2 and 0.1% BSA containing 5-10 μg of membrane protein and 0.1 nM […] in a total volume of 200 μl. Non-specific binding was determined in the presence of 1 μM NPY. The reaction mixtures were incubated for 90 minutes at room temperature then filtered through Millipore MAFC glass fiber filter plates which had been pre-soaked in 0.5% polyethleneimine. The filters were washed with phosphate-buffered saline, and radioactivity was measured in a Packard TopCount scintillation counter.
`CC(C)C[C@@H]1N/C(=N/c2ccc(CCNc3nc4ccc([N+](=O)[O-])cc4s3)cc2)SC1=O` [Example 340] showed a Ki greater than 10 µM.
With `O=C1S/C(=N\c2ccc(CCNc3nc4ccc([N+](=O)[O-])cc4s3)cc2)N2CCC[C@@H]12` [Example 341] the Ki was greater than 10 µM.
`O=C(O)C[C@@H]1N/C(=N/c2ccc(CCNc3nc4ccc([N+](=O)[O-])cc4s3)cc2)SC1=O` [Example 342] showed a Ki greater than 10 µM.
For `C[C@@H]1N/C(=N/c2ccc(CCNc3nc4ccc([N+](=O)[O-])cc4s3)cc2)SC1=O` [Example 343], the Ki was greater than 10 µM.
Compound `COc1ccc2nc(NCCc3ccc(/N=C4/N[C@@H](Cc5ccccc5)C(=O)S4)cc3)sc2c1` [Example 344] has a Ki greater than 10 µM.
In the case of `COc1ccc2nc(NCCc3ccc(/N=C4/N[C@@H](CC(C)C)C(=O)S4)cc3)sc2c1` [Example 345], the Ki is reported as greater than 10 µM.
`COc1ccc2nc(NCCc3ccc(/N=C4/N[C@@H](C(C)C)C(=O)S4)cc3)sc2c1` [Example 346] gave a Ki greater than 10 µM.
Compound `COc1ccc2nc(NCCc3ccc(/N=C4\SC(=O)[C@@H]5CCCN45)cc3)sc2c1` [Example 347] has a Ki greater than 10 µM.
Compound `COc1ccc2nc(NCCc3ccc(/N=C4/N[C@@H](CC(=O)O)C(=O)S4)cc3)sc2c1` [Example 348] has a Ki greater than 10 µM.
In the case of `COc1ccc2nc(NCCc3ccc(/N=C4/N[C@@H](C)C(=O)S4)cc3)sc2c1` [Example 349], the Ki is reported as greater than 10 µM.
With `Cc1ccc2nc(NCCc3ccc(/N=C4/N[C@@H](Cc5ccccc5)C(=O)S4)cc3)sc2c1` [Example 350] the Ki was greater than 10 µM.
With `Cc1ccc2nc(NCCc3ccc(/N=C4/N[C@@H](CC(C)C)C(=O)S4)cc3)sc2c1` [Example 351] the Ki was greater than 10 µM.
In the case of `CS(=O)(=O)c1ccc2nc(NCCc3ccc(/N=C4\SC(=O)[C@@H]5CCCN45)cc3)sc2c1` [Example 352], the Ki is reported as greater than 10 µM.
With `CS(=O)(=O)c1ccc2nc(NCCc3ccc(/N=C4/N[C@@H](CC(=O)O)C(=O)S4)cc3)sc2c1` [Example 353] the Ki was greater than 10 µM.
Compound `C[C@@H]1N/C(=N/c2ccc(CCNc3nc4ccc(S(C)(=O)=O)cc4s3)cc2)SC1=O` [Example 354] has a Ki greater than 10 µM.
`O=C1S/C(=N\c2ccc(CCNc3nc4ccc([N+](=O)[O-])cc4s3)cc2)N[C@H]1Cc1ccccc1` [Example 355] was tested, and the Ki was greater than 10 µM.
For `CC(C)[C@@H]1N/C(=N/c2ccc(CCNc3nc4ccc([N+](=O)[O-])cc4s3)cc2)SC1=O` [Example 356], the Ki was greater than 10 µM.
Work on `CSCC[C@@H]1N/C(=N/c2ccc(CCNc3nc4ccc(C)cc4s3)cc2)SC1=O` [Example 357] yielded a Ki of 1 to 10 µM.
Compound `O=C(O)C[C@@H]1N/C(=N/c2ccc(CCNc3nc4ccc(Cl)cc4s3)cc2)SC1=O` [Example 358] has a Ki greater than 10 µM.
In the case of `CC(C)[C@@H]1N/C(=N/c2ccc(CCNc3nc4ccc(S(C)(=O)=O)cc4s3)cc2)SC1=O` [Example 359], the Ki is reported as greater than 10 µM.
Work on `O=C1S/C(=N\c2ccc(CCNc3nc4cc(Cl)c(Cl)cc4s3)cc2)N[C@H]1Cc1ccccc1` [Example 360] yielded a Ki greater than 10 µM.
`CSCC[C@@H]1N/C(=N/c2ccc(CCNc3nc4cc(Cl)c(Cl)cc4s3)cc2)SC1=O` [Example 361] was tested, and the Ki was greater than 10 µM.
For `CC(C)C[C@@H]1N/C(=N/c2ccc(CCNc3nc4cc(Cl)c(Cl)cc4s3)cc2)SC1=O` [Example 362], the Ki was greater than 10 µM.
Compound `CC(C)[C@@H]1N/C(=N/c2ccc(CCNc3nc4cc(Cl)c(Cl)cc4s3)cc2)SC1=O` [Example 363] has a Ki greater than 10 µM.
`COc1cccc2sc(NCCc3ccc(/N=C4/N[C@@H](CC(C)C)C(=O)S4)cc3)nc12` [Example 364] gave a Ki greater than 10 µM.
`COc1cccc2sc(NCCc3ccc(/N=C4/N[C@@H](C(C)C)C(=O)S4)cc3)nc12` [Example 365] gave a Ki greater than 10 µM.
Work on `COc1cccc2sc(NCCc3ccc(/N=C4\SC(=O)[C@@H]5CCCN45)cc3)nc12` [Example 366] yielded a Ki greater than 10 µM.
`COc1cccc2sc(NCCc3ccc(/N=C4/N[C@@H](CC(=O)O)C(=O)S4)cc3)nc12` [Example 367] was tested, and the Ki was greater than 10 µM.
Work on `COc1cccc2sc(NCCc3ccc(/N=C4/N[C@@H](C)C(=O)S4)cc3)nc12` [Example 368] yielded a Ki greater than 10 µM.
With `Cc1cccc2sc(NCCc3ccc(/N=C4/N[C@@H](Cc5ccccc5)C(=O)S4)cc3)nc12` [Example 369] the Ki was greater than 10 µM.
`Cc1cccc2sc(NCCc3ccc(/N=C4/N[C@@H](CC(C)C)C(=O)S4)cc3)nc12` [Example 370] gave a Ki greater than 10 µM.
With `Cc1cccc2sc(NCCc3ccc(/N=C4/N[C@@H](C(C)C)C(=O)S4)cc3)nc12` [Example 371] the Ki was greater than 10 µM.
`Cc1cccc2sc(NCCc3ccc(/N=C4/N[C@@H](CC(=O)O)C(=O)S4)cc3)nc12` [Example 372] showed a Ki greater than 10 µM.
`O=C1S/C(=N\c2ccc(CCNc3nc4ccc(F)cc4s3)cc2)N[C@H]1Cc1ccccc1` [Example 373] showed a Ki greater than 10 µM.
With `CC(C)[C@@H]1N/C(=N/c2ccc(CCNc3nc4ccc(F)cc4s3)cc2)SC1=O` [Example 374] the Ki was greater than 10 µM.

Same assay, conditions: Procedure E compounds, rated A/B/C
In the case of `C=C(C)CN1/C(=N/c2ccc(CCNc3nc4ccc(C)cc4s3)cc2)SC2Cc3ccccc3[C@@H]21` (stereo partly drawn) [Example 225], the Ki is reported as greater than 10 µM.
`Cc1ccc2nc(NCCc3ccc(/N=C4/NC5(CCCC5)CS4)cc3)sc2c1` [Example 226] showed a Ki of 1 to 10 µM.
`Cc1ccc2nc(NCCc3ccc(/N=C4/NC(C)(C)CS4)cc3)sc2c1` [Example 227] was tested, and the Ki was less than 1 µM.
Work on `COc1cccc2sc(NCCc3ccc(/N=C4\SC5Cc6ccccc6[C@@H]5N4C)cc3)nc12` (stereo partly drawn) [Example 228] yielded a Ki greater than 10 µM.
`COc1cccc2sc(NCCc3ccc(/N=C4\SC5Cc6ccccc6[C@@H]5N4C4CC4)cc3)nc12` (stereo partly drawn) [Example 229] was tested, and the Ki was greater than 10 µM.
In the case of `COc1cccc2sc(NCCc3ccc(/N=C4\SCCN4C)cc3)nc12` [Example 230], the Ki is reported as greater than 10 µM.
`Clc1ccc2nc(NCCc3ccc(/N=C4/N[C@@H](Cc5c[nH]cn5)CS4)cc3)sc2c1` [Example 238] was tested, and the Ki was 1 to 10 µM.
Work on `Clc1ccc2nc(NCCc3ccc(/N=C4/NC5(CCCC5)CS4)cc3)sc2c1` [Example 239] yielded a Ki of 1 to 10 µM.
`CC1(C)CS/C(=N\c2ccc(CCNc3nc4ccc(Cl)cc4s3)cc2)N1` [Example 240] showed a Ki of 1 to 10 µM.
`CC(C)C[C@@H]1CS/C(=N\c2ccc(CCNc3nc4ccc(S(C)(=O)=O)cc4s3)cc2)N1` [Example 245] was tested, and the Ki was 1 to 10 µM.
Compound `CCCC1CS/C(=N\c2ccc(CCNc3nc4ccc(S(C)(=O)=O)cc4s3)cc2)N1` (stereo not drawn) [Example 249] has a Ki of 1 to 10 µM.
Compound `CCC1CS/C(=N\c2ccc(CCNc3nc4ccccc4s3)cc2)N1` (stereo not drawn) [Example 263] has a Ki of less than 1 µM.
With `CCCC1CS/C(=N\c2ccc(CCNc3nc4ccccc4s3)cc2)N1` (stereo not drawn) [Example 264] the Ki was less than 1 µM.
`C[C@@H]1CS/C(=N\c2ccc(CCNc3nc4ccccc4s3)cc2)N1` [Example 268] was tested, and the Ki was less than 1 µM.
With `CC[C@@H]1CS/C(=N\c2ccc(CCNc3nc4ccccc4s3)cc2)N1` [Example 269] the Ki was less than 1 µM.
For `c1ccc2sc(NCCc3ccc(/N=C4/N[C@@H](Cc5c[nH]cn5)CS4)cc3)nc2c1` [Example 270], the Ki was less than 1 µM.
Compound `c1ccc2sc(NCCc3ccc(/N=C4/NC5(CCCC5)CS4)cc3)nc2c1` [Example 271] has a Ki of less than 1 µM.
`CC1(C)CS/C(=N\c2ccc(CCNc3nc4ccccc4s3)cc2)N1` [Example 272] gave a Ki of less than 1 µM.
Work on `CC(C)C[C@@H]1CS/C(=N\c2ccc(CCNc3nc4ccc(F)cc4s3)cc2)N1` [Example 297] yielded a Ki of less than 1 µM.
`CC1(C)CS/C(=N/c2cccc(CCNc3nc4ccccc4s3)c2)N1` [Example 321] showed a Ki greater than 10 µM.
For `COc1ccc2nc(NCCc3ccc(/N=C4/NCC(C)S4)cc3)sc2c1` (stereo not drawn) [Example 322], the Ki was greater than 10 µM.
`Cc1ccc2nc(NCCc3ccc(/N=C4/N[C@@H](C)C(c5ccccc5)S4)cc3)sc2c1` (stereo partly drawn) [Example 323] gave a Ki greater than 10 µM.
`Cc1ccc2nc(NCCc3ccc(/N=C4/NCC(C)S4)cc3)sc2c1` (stereo not drawn) [Example 324] showed a Ki greater than 10 µM.
Compound `COc1cccc2sc(NCCc3ccc(/N=C4/N[C@H]5c6ccccc6CC5S4)cc3)nc12` (stereo partly drawn) [Example 325] has a Ki greater than 10 µM.
With `COc1cccc2sc(NCCc3ccc(/N=C4/NCC(C)S4)cc3)nc12` (stereo not drawn) [Example 326] the Ki was greater than 10 µM.
Compound `Cc1cccc2sc(NCCc3ccc(/N=C4/NCC(C)S4)cc3)nc12` (stereo not drawn) [Example 327] has a Ki greater than 10 µM.
With `Fc1ccc2nc(NCCc3ccc(/N=C4/N[C@H]5c6ccccc6CC5S4)cc3)sc2c1` (stereo partly drawn) [Example 328] the Ki was less than 1 µM.
For `Fc1ccc2nc(NCCc3ccc(/N=C4/NCC(c5ccccc5)S4)cc3)sc2c1` (stereo not drawn) [Example 329], the Ki was greater than 10 µM.
For `CC1CN/C(=N/c2ccc(CCNc3nc4ccc(F)cc4s3)cc2)S1` (stereo not drawn) [Example 330], the Ki was greater than 10 µM.
`CC1CN/C(=N/c2ccc(CCNc3nc4ccc(Cl)cc4s3)cc2)S1` (stereo not drawn) [Example 331] showed a Ki greater than 10 µM.
Work on `CS(=O)(=O)c1ccc2nc(NCCc3ccc(/N=C4/N[C@H]5c6ccccc6CC5S4)cc3)sc2c1` (stereo partly drawn) [Example 332] yielded a Ki greater than 10 µM.
`COc1ccc(C2CCSC(Nc3ccc(CCNc4nc5ccccc5s4)cc3)=N2)cc1` (stereo not drawn) [Example 333] showed a Ki of less than 1 µM.
With `CC(C)C1CCSC(Nc2ccc(CCNc3nc4ccccc4s3)cc2)=N1` (stereo not drawn) [Example 334] the Ki was less than 1 µM.
With `Brc1ccc(C2CCSC(Nc3ccc(CCNc4nc5ccccc5s4)cc3)=N2)cc1` (stereo not drawn) [Example 335] the Ki was less than 1 µM.
`c1ccc2c(CC3CSC(Nc4ccc(CCNc5nc6ccccc6s5)cc4)=N3)cccc2c1` (stereo not drawn) [Example 336] showed a Ki greater than 10 µM.
`Clc1ccc(C2CCSC(Nc3ccc(CCNc4nc5ccccc5s4)cc3)=N2)cc1` (stereo not drawn) [Example 337] showed a Ki of less than 1 µM.
`CC(C)CC1CCSC(Nc2ccc(CCNc3nc4ccccc4s3)cc2)=N1` (stereo not drawn) [Example 338] was tested, and the Ki was less than 1 µM.
